Source: patent US8093248B2, “Compounds useful for the treatment of conditions associated with weight gain” (AstraZeneca AB (PUBL), priority 2007, dated 2012)
pEC50: −log10 of the molar value.

How the values were obtained:
[1] = tested on: JEG-3 cells; settings: Biol. Reprod. (2007) 76: 203-10; cited from earlier work
[2] = tested on: JEG-3 cells; assay: [3H]-thymidine incorporation in JEG-3 cells (JEG-3 protocol); format: cell-based; settings: JEG-3 choriocarcinoma cell line, FIG. 6
Procedure: In JEG-3 cells (choriocarcinoma cell line) leptin is able to stimulate proliferation up to 3 fold (Biol. Reprod. (2007) 76: 203-10). […] The radioactivity incorporated by the cells is an index of their proliferative activity and is measured in counts per minute (CPM) with a liquid scintillation beta counter.
This finding can be applied to test whether a compound is able to either reproduce the effect of leptin on cell proliferation (leptin receptor agonist mimetic) (i.e., a given compound will cause an increase in incorporated [^3H]-Thymidine by the cells) or to inhibit the effect of leptin (antagonistic effect) by preventing the leptin-mediated increase in [^3H]-thymidine incorporation.

pEC50 ([2]; read-out: EC50 of concentration-dependent increase in [3H]-thymidine incorporation): 8.68
Substance: leptin: hormone synthesized in fat cells that is believed to act in the hypothalamus to reduce food intake and body weight
stimulation of proliferation [1]: up to 3 fold
concentration of maximal effect on [3H]-thymidine incorporation [2]: 100 nM
